The values below come from publication doi:10.1101/2021.10.25.465661v1 (biorxiv, 2021).

The target in this experiment is T1, Q-eTud34 (Drosophila melanogaster, UniProt Q9VE55).
T1 sequence (Q9VE55 959-1515): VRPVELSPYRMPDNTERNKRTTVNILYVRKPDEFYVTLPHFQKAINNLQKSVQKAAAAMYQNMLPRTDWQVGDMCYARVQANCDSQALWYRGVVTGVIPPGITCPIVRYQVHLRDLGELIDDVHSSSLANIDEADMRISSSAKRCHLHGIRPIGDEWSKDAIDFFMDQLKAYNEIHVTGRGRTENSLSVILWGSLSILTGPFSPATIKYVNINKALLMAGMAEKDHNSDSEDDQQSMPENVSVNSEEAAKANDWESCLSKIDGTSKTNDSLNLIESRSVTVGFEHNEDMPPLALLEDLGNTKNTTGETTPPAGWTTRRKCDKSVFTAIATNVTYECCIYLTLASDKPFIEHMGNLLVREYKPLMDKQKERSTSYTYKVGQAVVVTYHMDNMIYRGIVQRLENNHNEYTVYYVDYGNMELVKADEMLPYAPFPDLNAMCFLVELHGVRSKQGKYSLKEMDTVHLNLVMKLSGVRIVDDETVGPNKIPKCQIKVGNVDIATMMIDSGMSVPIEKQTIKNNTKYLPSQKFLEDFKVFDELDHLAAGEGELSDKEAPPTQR
The experiment in a line: thermal shift assay. The experiment is classed as binding. The following applies: read-out: Tm increase at 10 mM.

For `CN(C)C(=N)NCCC[C@H](N)C(=O)O` [aDMA], the ΔTm at 10000 µM is 0.9 °C.
